Results from patent US20130172345A1, “1-ACYL-4-(PHENOXY, BENZYLOXY, OR PHENYLAMINO)-1,2,3,4-TETRAHYDROQUINOLINE DERIVATIVES” (KOWA COMPANY, LTD., priority 2007, published 2013).
Structures can show the parent of a compound that is named as a salt.

What was measured:
[1] = tested on: HepG2 cells originating from human liver cancer; test: EPO production in HepG2 cells (EPO ELISA of culture supernatant, 4% oxygen, 48 hrs); type: cell-based; conditions: test compound 3 μM, oxygen 4%, non-stimulated state = 100%, read-out: EPO production amount, % of control (3 μM)
Description: HepG2 cells originating from human liver cancer were seeded at a density of 1×10^4 cells per well on a 24-well plate by using minimum essential medium (MEM, manufactured by Sigma) comprising 10% bovine fetal serum. Next day, the medium was exchanged with Dulbecco's modified eagle medium (DMEM, manufactured by Sigma) comprising 10% bovine fetal serum lacking phenol red. Then, the test compound dissolved in DMSO was added thereto to obtain the final concentration of 3 μM or 10 μM while having 400 μl of the medium per well. The cells were incubated for 48 hrs in a CO2 incubator which had been adjusted to have oxygen concentration of 4%, followed by collecting the culture supernatant. The EPO concentration in the culture supernatant was immediately measured by using EPO ELISA kit (manufactured by Roche Diagnostics K.K.). Specific procedures were carried out according to the manufacturer's protocol included in the kit.
When EPO production amount in non-stimulated state, i.e., without addition of any compound, was 100%, the EPO production amount induced by each compound was calculated (% of control).

[2] = tested on: K562 cells, human proerythroblast cells; test: Hemoglobin production in K562 cells (fluorescence of the porphyrin ring); type: cell-based; conditions: 144 h, test compound 6 μM, 3+3 days, non-stimulated state = 100%, read-out: production amount of hemoglobin, % of control (6 μM)
Description: K562 cells (obtained from ATCC), which are human proerythroblast cells, were seeded at a density of 1×10^5 cells/1 mL on a 24-well plate by using complete medium (RPMI-1640 medium comprising 10% bovine fetal serum). After adding the test compound having 1000× concentration (1 μL), the cells were incubated for three days in a CO2 incubator (37° C., 5% CO2). After exchanging the medium, the cells were further incubated for three days. Then, the cells were collected and counted. After adjusting them to have 3×10^5 cells, the amount of hemoglobin produced in the cells was determined by measuring fluorescence of the porphyrin ring. Specifically, the cells which had been collected by centrifugation were suspended in 2 M oxalic acid solution (500 μL) and boiled for 30 minutes under heating. After cooling the cells, the fluorescence intensity was measured by Fluorescence micro plate reader (Spectra MAX GeminiEM, manufactured by Molecular Devices Corporation) ([…]). When hemoglobin amount in non-stimulated state, i.e., without addition of any compound, was 100%, the production amount of hemoglobin induced by each compound was calculated (% of control).

Row | SMILES | activity at 3 µM [1] [%] | activity at 6 µM [2] [%]
1 | CC(=O)N1c2c(F)cccc2[C@H](Nc2ccccc2F)C[C@@H]1C (relative stereo) [Compound 4, cis-1-acetyl-8-fluoro-4-[(2-fluorophenyl)amino]-2-methyl-1,2,3,4-tetrahydroquinoline] | 163 | 92
2 | C[C@H]1C[C@@H](Nc2ccc(F)cc2)c2cc(F)ccc2N1C(=O)C1CCCCC1 (relative stereo) [Compound 6, cis-1-cyclohexanecarbonyl-6-fluoro-4-[(4-fluorophenyl)amino]-2-methyl-1,2,3,4-tetrahydroquinoline] | 225 | 326
3 | CC(=O)N1c2cc(C#N)ccc2[C@H](Nc2ccccc2)C[C@@H]1C (relative stereo) [Compound 7, cis-1-acetyl-7-cyano-2-methyl-4-phenylamino-1,2,3,4-tetrahydroquinoline] | 261 | 260
4 | CC(=O)N1c2ccccc2[C@H](Nc2ccccc2F)C[C@@H]1C (relative stereo) [Compound 22, cis-1-acetyl-4-[(2-fluorophenyl)amino]-2-methyl-1,2,3,4-tetrahydroquinoline] | 150 | 383
5 | CC(=O)N1c2cc(Br)ccc2[C@H](Nc2ccccc2)C[C@@H]1C (relative stereo) [Compound 23, cis-1-acetyl-7-bromo-2-methyl-4-phenylamino-1,2,3,4-tetrahydroquinoline] | 135 | 544
6 | CC(=O)N1c2ccccc2[C@H](Oc2ccccc2)C[C@@H]1C (relative stereo) [Compound 26, cis-1-acetyl-2-methyl-4-phenoxy-1,2,3,4-tetrahydroquinoline] | 214 | 188
7 | CC(=O)N1c2ccccc2[C@H](Oc2ccc(F)cc2)C[C@@H]1C (relative stereo) [Compound 27, cis-1-acetyl-4-(4-fluorophenoxy)-2-methyl-1,2,3,4-tetrahydroquinoline] | 292 | 281
8 | CC(=O)N1c2ccccc2[C@H](Oc2cccc(F)c2)C[C@@H]1C (relative stereo) [Compound 28, cis-1-acetyl-4-(3-fluorophenoxy)-2-methyl-1,2,3,4-tetrahydroquinoline] | 167 | 216
9 | CC(=O)N1c2ccccc2[C@H](Oc2ccccc2F)C[C@@H]1C (relative stereo) [Compound 29, cis-1-acetyl-4-(2-fluorophenoxy)-2-methyl-1,2,3,4-tetrahydroquinoline] | 305 | 201
10 | CC(=O)N1c2ccccc2[C@H](Oc2ccc(F)cc2F)C[C@@H]1C (relative stereo) [Compound 30, cis-1-acetyl-4-(2,4-difluorophenoxy)-2-methyl-1,2,3,4-tetrahydroquinoline] | 339 | 136
11 | CC(=O)N1c2ccc(C)cc2C(Nc2ccc(C)cc2)CC1C (centres unmarked) [Compound 2, 1-acetyl-2,6-dimethyl-4-[(4-methylphenyl)amino]-1,2,3,4-tetrahydroquinoline] | 167 | –
12 | CC(=O)N1c2ccccc2C(Nc2ccc(O)cc2)CC1C (stereo not drawn) [Compound 24, cis-1-acetyl-4-[(4-hydroxyphenyl)amino]-2-methyl-1,2,3,4-tetrahydroquinoline.hydrochloride] | 117 | –
13 | CC(=O)N1c2ccccc2C(Nc2ccc(-c3ccccc3)cc2)CC1C (centres unmarked) [Compound 25, 1-acetyl-2-methyl-4-[(1,1′-biphenyl-4-yl)amino]-1,2,3,4-tetrahydroquinoline] | 242 | –
14 | CC(=O)N1c2ccc(C(N)=O)cc2C(Nc2ccc(Cl)cc2)CC1C (centres unmarked) [Compound 43, 1-acetyl-4-[(4-chlorophenyl)amino]-2-methyl-1,2,3,4-tetrahydroquinoline-6-carboxamide] | 452 | –
15 | CC(=O)N1c2ccccc2C(Nc2ccccc2C)CC1C (centres unmarked) [Compound 49, 1-acetyl-4-[(2-methylphenyl)amino]-2-methyl-1,2,3,4-tetrahydroquinoline] | 271 | –
16 | CC(=O)N1c2ccccc2C(Nc2cccc(C)c2)CC1C (centres unmarked) [Compound 50, 1-acety1-4-[(3-methylphenyl)amino]-2-methyl-1,2,3,4-tetrahydroquinoline] | 289 | –
17 | CC(=O)N1c2ccccc2C(Nc2ccc(C)cc2)CC1C (centres unmarked) [Compound 51, 1-acety1-4-[(4-methylphenyl)amino]-2-methyl-1,2,3,4-tetrahydroquinoline] | 239 | –
18 | CC(=O)N1c2ccccc2C(Nc2ccc(C(F)(F)F)cc2)CC1C (centres unmarked) [Compound 52, 1-acetyl-2-methyl-4-[(4-trifluoromethylphenyl)amino]-1,2,3,4-tetrahydroquinoline] | 314 | –
19 | CC(=O)N1c2ccccc2C(Oc2ccc(N3CCOCC3)cc2)CC1C (centres unmarked) [Compound 55, 1-acetyl-4-(4-morpholinophenoxy)-2-methyl-1,2,3,4-tetrahydroquinoline] | 134 | –
20 | CCOC(=O)Cc1ccc(NC2CC(C)N(C(C)=O)c3ccccc32)cc1 (centres unmarked) [Compound 70, 1-acetyl-4-[(4-ethoxycarbonylmethylphenyl)amino]-2-methyl-1,2,3,4-tetrahydroquinoline] | 165 | –
21 | CC(=O)N1c2ccc(N3CCN(S(C)(=O)=O)CC3)cc2C(Nc2ccc(Cl)cc2)CC1C (centres unmarked) [Compound 80, 1-acetyl-6-[(4-methanesulfonyl)piperazino]-4-[(4-chlorophenyl)amino]-2-methyl-1,2,3,4-tetrahydroquinoline] | 219 | –
22 | CC(=O)N1c2ccc(N3CCN(C(C)C)CC3)cc2C(Nc2ccc(Cl)cc2)CC1C (centres unmarked) [Compound 81, 1-acetyl-4-[(4-chlorophenyl)amino]-6-[(4-isopropyl)piperazino]-2-methyl-1,2,3,4-tetrahydroquinoline] | 234 | –
23 | CC(=O)N1c2ccc(N3CC(C)OC(C)C3)cc2C(Nc2ccc(NS(C)(=O)=O)cc2)CC1C (stereo not drawn) [Compound 110, 1-acetyl-6-[cis-2,6-dimethylmorpholin-4-yl]-4-[(4-methanesulfonylaminophenyl)amino]-2-methyl-1,2,3,4-tetrahydroquinoline.2 hydrochloride] | – | 211
24 | CC(=O)N1c2ccc(C(=O)NN)cc2C(Nc2ccc(Cl)cc2)CC1C (centres unmarked) [Compound 115, 1-acetyl-4-[(4-chlorophenyl)amino]-2-methyl-1,2,3,4-tetrahydroquinoline-6-carbohydrazide] | – | 163
25 | CC(=O)N1c2ccc(C#N)cc2C(Nc2ccc(Cl)cc2)CC1C (centres unmarked) [Compound 117, 1-acetyl-4-[(4-chlorophenyl)amino]-6-cyano-2-methyl-1,2,3,4-tetrahydroquinoline] | 204 | –
26 | CONC(=O)c1ccc2c(c1)C(Nc1ccc(Cl)cc1)CC(C)N2C(C)=O (centres unmarked) [Compound 118, 1-acetyl-4-[(4-chlorophenyl)amino]-N-methoxy-2-methyl-1,2,3,4-tetrahydroquinoline-6-carboxamide.hydrochloride] | 138 | –
27 | CC(=O)N1c2ccc(-c3nc(=O)o[nH]3)cc2C(Nc2ccc(Cl)cc2)CC1C (centres unmarked) [Compound 120, 1-acetyl-4-[(4-chlorophenyl)amino]-2-methyl-6-[1,2,4-oxadiazol-5(2H)-on-3-yl]-1,2,3,4-tetrahydroquinoline] | – | 188
28 | CC(=O)N1c2ccc(F)cc2C(Nc2ccc(CC(=O)O)cc2)CC1C (centres unmarked) [Compound 123, 1-acetyl-4-[(4-carboxymethylphenyl)amino]-6-fluoro-2-methyl-1,2,3,4-tetrahydroquinoline] | 142 | –
